Assay results as given in patent US7829728B2, “Diarymethyl and related compounds” (Theravance, Inc., priority 2003, dated 2010).

What was measured:
[1] = biological target: human β2 adrenergic receptor (Homo sapiens, UniProt P07550); assay: Whole-cell cAMP Flashplate assay in CHO cell lines heterologously expressing human β2 adrenergic receptor (Assay Test Procedure C); format: cell-based; set-up: expressed in transfected cells; host or cells: CHO cells, membranes
Procedure: cAMP assays were performed in a radioimmunoassay format using the Flashplate Adenylyl Cyclase Activation Assay System with [^125I]-cAMP (NEN SMP004, PerkinElmer Life Sciences Inc., Boston, Mass.), according to the manufacturers instructions. For the determination of β receptor agonist potency (EC50), CHO-K1 cell lines stably expressing cloned human β1, β2 or β3 adrenergic receptors were grown to near confluency in HAM's F-12 media supplemented with 10% FBS and Geneticin (250 μg/mL). Cells were rinsed with PBS and detached in dPBS (Dulbecco's Phosphate Buffered Saline, without CaCl2 and MgCl2) containing 2 mM EDTA or Trypsin-EDTA solution (0.05% trypsin/0.53 mM EDTA). After counting cells in Coulter cell counter, cells were pelleted by centrifugation at 1,000 rpm and re-suspended in stimulation buffer containing IBMX (PerkinElmer Kit) pre-warmed to room temperature to a concentration of 1.6×10^6 to 2.8×10^6 cells/mL. About 60,000 to 80,000 cells per well were used in this assay. […] The amount of cAMP produced (pmol/well) was calculated based on the counts observed for the samples and cAMP standards as described in the manufacturer's user manual. Data were analyzed by nonlinear regression analysis with the GraphPad Prism Software package (GraphPad Software, Inc., San Diego, Calif.) with the sigmoidal equation. […]

[2] = biological target: T1, M3 muscarinic receptor (hM3) (Homo sapiens, UniProt P20309); assay: Radioligand binding assay for muscarinic receptors (Assay Test Procedure B); details: [3H]-NMS displacement, CHO cell membranes expressing hM3
T1 construct: expressed in transfected cells; host or cells: CHO cells, membranes
Procedure: CHO cell lines stably expressing cloned human hM1, hM2, hM3 and hM4 muscarinic receptor subtypes, respectively, were grown to near confluency in HAM's F-12 media supplemented with 10% FBS and 250 μg/mL Geneticin. The cells were grown in a 5% CO2, 37° C. incubator and lifted with 2 mM EDTA in dPBS. Cells were collected by 5 minute centrifugation at 650×g, and cell pellets were either stored frozen at −80° C. or membranes were prepared immediately for use. For membrane preparation, cell pellets were resuspended in lysis buffer and homogenized with a Polytron PT-2100 tissue disrupter (Kinematica AG; 20 seconds×2 bursts). Crude membranes were centrifuged at 40,000×g for 15 minutes at 4° C. […] The protein concentration of the membrane suspension was determined by the method described in Lowry et al., 1951, Journal of Biochemistry, 193, 265. […]
Radioligand binding assays for cloned human muscarinic receptors were performed in 96-well microtiter plates in a total assay volume of 100 μL. […] Filter plates were rinsed three times with wash buffer (10 mM HEPES) to remove unbound radioactivity. […] The plates were then counted in a PerkinElmer Topcount liquid scintillation counter (PerkinElmer Inc., Wellesley, Mass.). Binding data were analyzed by nonlinear regression analysis with the GraphPad Prism Software package (GraphPad Software, Inc., San Diego, Calif.) using the one-site competition model. […]

Chain of human β2 adrenergic receptor (P07550 whole entry): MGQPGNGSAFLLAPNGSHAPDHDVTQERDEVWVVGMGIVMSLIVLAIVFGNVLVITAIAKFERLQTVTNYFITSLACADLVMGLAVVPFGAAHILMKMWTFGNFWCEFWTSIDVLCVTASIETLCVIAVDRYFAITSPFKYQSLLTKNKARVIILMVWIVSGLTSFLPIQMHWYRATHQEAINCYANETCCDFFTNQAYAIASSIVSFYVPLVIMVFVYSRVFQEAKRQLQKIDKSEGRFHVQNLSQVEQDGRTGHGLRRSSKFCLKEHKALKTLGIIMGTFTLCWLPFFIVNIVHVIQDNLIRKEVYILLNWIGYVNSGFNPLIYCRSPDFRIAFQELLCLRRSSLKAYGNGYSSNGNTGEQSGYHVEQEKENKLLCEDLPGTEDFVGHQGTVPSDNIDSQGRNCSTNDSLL
T1 sequence (P20309 whole entry): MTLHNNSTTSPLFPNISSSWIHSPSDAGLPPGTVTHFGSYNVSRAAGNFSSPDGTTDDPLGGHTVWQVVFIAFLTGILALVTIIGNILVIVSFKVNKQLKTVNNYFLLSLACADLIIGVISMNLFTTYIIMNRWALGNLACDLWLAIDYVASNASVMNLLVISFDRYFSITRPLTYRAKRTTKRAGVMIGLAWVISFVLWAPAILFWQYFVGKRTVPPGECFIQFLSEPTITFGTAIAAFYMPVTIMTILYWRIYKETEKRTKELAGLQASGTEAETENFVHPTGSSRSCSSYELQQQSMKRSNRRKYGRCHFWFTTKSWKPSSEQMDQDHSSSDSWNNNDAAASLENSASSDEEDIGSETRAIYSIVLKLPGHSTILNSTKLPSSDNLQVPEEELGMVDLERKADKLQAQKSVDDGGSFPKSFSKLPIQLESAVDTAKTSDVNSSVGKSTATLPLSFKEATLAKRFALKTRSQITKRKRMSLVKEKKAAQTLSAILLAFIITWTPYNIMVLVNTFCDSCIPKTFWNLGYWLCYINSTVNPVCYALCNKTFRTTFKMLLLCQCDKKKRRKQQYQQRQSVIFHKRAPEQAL

EC50 ([1]; cAMP, CHO-K1 cells expressing cloned human β2 receptor): < 10 nM
ratio of EC50(β1)/EC50(β2) ([1]; receptor subtype selectivity, functional cAMP, human β1 versus β2): greater than 10
Ki [2]: < 50 nM
SMILES: NC(=O)C(c1ccccc1)(c1ccccc1)[C@@H]1CCN(CCCCCCCCCNCC(O)c2ccc(O)c3[nH]c(=O)ccc23)C1 (mixture of isomers) [Example 1, 2-((S)-1-{9-[2-Hydroxy-2-(8-hydroxy-2-oxo-1,2-dihydroquinolin-5-yl)ethylamino]-nonyl}pyrrolidin-3-yl)-2,2-diphenylacetamide]
